Marks after values point to notes of the source that are not given here.
Experiments:
Assay type in all cases: in vivo
Conditions in all cases: 100 = 100% disease control
[1] = tested on: Septoria tritici; assay: Test G: wheat leaf blotch on wheat seedlings, sprayed the day before inoculation, visual disease rating
How it was run: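 Compounds dissolved in acetone (3% of final volume), then suspended in 50/50 acetone/water with 250 ppm Trem® 014 and sprayed to run-off on seedlings at 200 ppm (≈500 g/ha) or 40 ppm where marked. Inoculation with spores followed next day; visual rating after 48 h saturated at 24° C plus 19 days at 20° C.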

[2] = tested on: Erysiphe graminis f. sp. tritici; assay: Test J: wheat powdery mildew on wheat seedlings, sprayed the day before inoculation, visual disease rating
How it was run: (§1)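 Spray suspension: acetone 3% of final volume, then 50/50 acetone/water plus 250 ppm Trem® 014. Applied to run-off on seedlings at 200 ppm (≈500 g/ha); starred entries tested at 40 ppm.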

[3] = tested on: Puccinia recondita f. sp. tritici; assay: Test H: wheat leaf rust, test suspension sprayed after inoculation of wheat seedlings, visual disease rating
How it was run: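 Wheat seedlings inoculated with P. recondita spores, held 24 h saturated at 20 °C, then 2 days in growth chamber at 20 °C; compound suspension (acetone/water with Trem 014) sprayed to run-off afterwards. Rated visually; 200 ppm (≈500 g/ha) unless marked *, which denotes 40 ppm.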

[4] = tested on: Botrytis cinerea; assay: Test C: tomato Botrytis on tomato seedlings, sprayed the day before inoculation, visual disease rating
How it was run: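 Spray to run-off on tomato seedlings; test conc. 200 ppm (≈500 g/ha), some entries 40 ppm. Formulation: acetone 3% of final vol., then acetone/water 50:50 + 250 ppm polyhydric alcohol ester surfactant.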

[5] = tested on: Septoria nodorum; assay: Test F: wheat glume blotch on wheat seedlings, sprayed the day before inoculation, visual disease rating
How it was run: as §1

[6] = tested on: Puccinia recondita f. sp. tritici; assay: Test I: wheat leaf rust on wheat seedlings, sprayed the day before inoculation, visual disease rating
How it was run: as §1

[7] = tested on: Alternaria solani; assay: Test D: tomato early blight, sprayed the day before inoculation, visual disease rating
How it was run: as §1

[8] = 200 ppm, 0 = no control relative to controls
[9] = 40 ppm (marked *), 0 = no control

SMILES	Test G disease control rating [1, 8] [%]	Test J disease control rating [2, 8] [%]	Test H disease control rating [3, 8] [%]	Test C disease control rating [4, 8] [%]	Test F disease control rating [5, 8] [%]	Test I disease control rating [6, 8] [%]	Test D disease control rating [7, 8] [%]	other results
COc1ccc(F)c(-c2c(Cl)nc(Cl)n2-c2ccc(Cl)cc2)c1Cl [compound 481]	95	100	0	100	99	97	100	
COc1ccc(F)c(-c2c(Cl)nc(C)n2-c2cccc(C)c2)c1F [compound 335]								Test G disease control rating [1, 9]: 91* %; Test J disease control rating [2, 9]: 99* %; Test H disease control rating [3, 9]: 0* %; Test C disease control rating [4, 9]: 100* %; Test F disease control rating [5, 9]: 82* %; Test I disease control rating [6, 9]: 99* %; Test D disease control rating [7, 9]: 100* %
COc1cc(F)c(-c2c(Cl)nc(C)n2-c2cccc(Cl)c2)c(F)c1 [compound 500]	94	100	98	98	100	100	100	
Cc1nc(Cl)n(-c2ccc(F)cc2)c1-c1c(F)cc(F)cc1F [compound 492]								Test G disease control rating ([1]; 40 ppm (marked *)): 82* %; Test J disease control rating ([2]; 40 ppm (marked *)): 0* %; Test H disease control rating ([3]; 40 ppm (marked *)): 0* %; Test C disease control rating ([4]; 40 ppm (marked *)): 94* %; Test F disease control rating ([5]; 40 ppm (marked *)): 0* %; Test I disease control rating ([6]; 40 ppm (marked *)): 0* %; Test D disease control rating ([7]; 40 ppm (marked *)): 100* %
COc1ccc(F)c(-c2c(Cl)nc(Cl)n2-c2ccc(C)cc2)c1F [compound 310]	96	100	61	99	99	100	100	
Fc1cc(F)c(-c2c(Cl)ncn2-c2cccc(OC(F)(F)F)c2)c(F)c1 [compound 586]	3	21	0	0	0	0	0	
Cc1ccc(-n2c(Cl)nc(Cl)c2-c2ccc(F)cc2Cl)cc1 [compound 282]								Test G disease control rating ([1]; 200 ppm, 0 = no control): 93%; Test J disease control rating ([2]; 200 ppm, 0 = no control): 100%; Test H disease control rating ([3]; 200 ppm, 0 = no control): 65%; Test C disease control rating ([4]; 200 ppm, 0 = no control): 99%; Test F disease control rating ([5]; 200 ppm, 0 = no control): 0%; Test I disease control rating ([6]; 200 ppm, 0 = no control): 99%; Test D disease control rating ([7]; 200 ppm, 0 = no control): 99%
COc1cc(F)c(-c2c(Cl)nc(Cl)n2-c2ccc(C(F)(F)F)nc2)c(F)c1 [compound 488]	93	100	41	99	100	100	100	
COc1ccc(F)c(-c2c(Cl)nc(C)n2-c2cccc(F)c2)c1F [compound 315]	95	100	86	99	100	100	100	
COc1cc(F)c(-c2c(N(C)C)ncn2Cc2ccc(Cl)cc2)c(F)c1 [compound 269]								Test G disease control rating ([1]; 200 ppm, 0 = no control): 83%; Test J disease control rating ([2]; 200 ppm, 0 = no control): 0%; Test H disease control rating ([3]; 200 ppm, 0 = no control): 9%; Test C disease control rating ([4]; 200 ppm, 0 = no control): 100%; Test F disease control rating ([5]; 200 ppm, 0 = no control): 87%; Test I disease control rating ([6]; 200 ppm, 0 = no control): 9%; Test D disease control rating ([7]; 200 ppm, 0 = no control): 0%
Fc1cc(F)c(-c2c(Cl)nc(Cl)n2-c2ccc(OC(F)(F)F)cc2)c(F)c1 [compound 600]	94	99	7	86	0	0	100	
COc1ccc(F)c(-c2c(Cl)nc(Cl)n2-c2ccc(Cl)c(C)c2)c1F [compound 399]	96	100	0	100	82	82	99	
COc1cc(F)c(-c2c(N(C)C)ncn2Cc2ccc(C)cc2)c(F)c1 [compound 275]								Test G disease control rating ([1]; 200 ppm, 0 = no control): 85%; Test J disease control rating ([2]; 200 ppm, 0 = no control): 0%; Test H disease control rating ([3]; 200 ppm, 0 = no control): 9%; Test C disease control rating ([4]; 200 ppm, 0 = no control): 100%; Test F disease control rating ([5]; 200 ppm, 0 = no control): 0%; Test I disease control rating ([6]; 200 ppm, 0 = no control): 74%; Test D disease control rating ([7]; 200 ppm, 0 = no control): 82%
Fc1cccc(-n2cnc(Cl)c2-c2c(F)ccc(Br)c2F)c1 [compound 623]	97	100	0	98	0	98	33	
Cc1nc(Cl)c(-c2c(F)cc(F)cc2F)n1-c1ccc(OC(F)F)cc1 [compound 610]	99	100	100	99	99	100	100	
COc1cc(F)c(-c2c(Cl)nc(Cl)n2-c2cccc(OC(F)(F)F)c2)c(F)c1 [compound 567]	94	100	7	99	0	99	67	
N#Cc1ccc(F)c(-c2c(Cl)ncn2-c2ccc(F)cc2)c1F [compound 656]	99	100	9	100	20	100	100	
COc1cc(F)c(-c2c(Cl)nc(Cl)n2C(C)c2ncc(Cl)cc2Cl)c(F)c1 (centres unmarked) [compound 727]	89	21	15	98	0	74	0	
COc1cc(OC)cc(-n2cnc(C)c2-c2c(F)cc(OC)cc2F)c1 [Compound 632, 5-(2,6-difluoro-4-methoxyphenyl)-1-(3,5-dimethoxyphenyl)-4-methyl-1H-imidazole]								pest or weed control at 200 ppm ([1]; Zymoseptoria tritici, 504 h, 200 ppm, 0 = no control relative to controls): 98%; pest or weed control at 200 ppm ([2]; Blumeria graminis, 168 h, 200 ppm, 0 = no control relative to controls): 97%; pest or weed control at 200 ppm ([3]; Puccinia recondita, 96 h, 200 ppm, 0 = no control relative to controls): 99%; pest or weed control at 200 ppm ([4]; Botrytis cinerea, 120 h, 200 ppm, 0 = no control relative to controls): 99%; pest or weed control at 200 ppm ([5]; Parastagonospora nodorum, 264 h, 200 ppm, 0 = no control relative to controls): 0%; pest or weed control at 200 ppm ([6]; Puccinia recondita, 168 h, 200 ppm, 0 = no control relative to controls): 100%; pest or weed control at 200 ppm ([7]; Alternaria solani, 168 h, 200 ppm, 0 = no control relative to controls): 100%
COc1cc(OC)cc(-n2c(C)nc(Cl)c2Cc2c(F)cc(F)cc2F)c1 [compound 534]	2	0	0	38	0	0	0	
Fc1cccc(-n2c(Cl)nc(Cl)c2-c2c(F)cc(F)cc2F)c1 [compound 365]	91	96	54	100	40	99	100	
Fc1cccc(F)c1-c1c(Cl)nc(CCl)n1-c1ccc2c(c1)OCCO2 [compound 469]								Test G disease control rating ([1]; 40 ppm (marked *)): 79* %; Test J disease control rating ([2]; 40 ppm (marked *)): 0* %; Test H disease control rating ([3]; 40 ppm (marked *)): 0* %; Test C disease control rating ([4]; 40 ppm (marked *)): 65* %; Test F disease control rating ([5]; 40 ppm (marked *)): 0* %; Test I disease control rating ([6]; 40 ppm (marked *)): 81* %; Test D disease control rating ([7]; 40 ppm (marked *)): 0* %
Fc1ccc(-n2cnc(Br)c2-c2c(F)ccc(F)c2F)cc1 [compound 332]	95	99	9	100	60	96	99	

Source: patent publication US20110045101A1, “FUNGICIDAL SUBSTITUTED AZOLES” (E.I. Du Pont De Nemours and Company, priority 2009, published 2011)
